According to patent US20230203081A1, “LINCOSAMIDE ANTIBIOTICS AND USES THEREOF” (President and Fellows of Harvard College, priority 2020, published 2023):

Experiments:
Assay type in all cases: cell-based
[1] = system: S. aureus ATCC BAA-1707 (MRSA); test: MIC (broth microdilution or agar dilution, CLSI); settings: Staphylococcus aureus
Summary of the method: (§1)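 Isolates other than streptococci and anaerobes, which had their own procedures, were grown overnight at 35° C on tryptic soy agar with 5% sheep blood. Suspensions were then diluted to a final inoculum of 5×10^5 CFU/mL in broth microdilution wells.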

S. pneumoniae ATCC 49619 = test: MIC (broth microdilution or agar dilution, CLSI); settings: Streptococcus pneumoniae, ATCC49619
Summary of the method: as §1

K. pneumoniae ATCC 10031 = test: MIC (broth microdilution or agar dilution, CLSI); settings: Klebsiella pneumoniae, ATCC10031
Summary of the method: as §1

S. aureus hVISA = test: MIC (broth microdilution or agar dilution, CLSI); settings: Staphylococcus aureus
Summary of the method: as §1

E. faecalis ATCC 29212 = test: MIC (broth microdilution or agar dilution, CLSI); settings: Enterococcus faecalis, ATCC29212
Summary of the method: as §1

[2] = system: S. pneumoniae MMX 3031 cMefA; test: MIC (broth microdilution or agar dilution, CLSI); settings: Streptococcus pneumoniae, MMX3031CMEFA
Summary of the method: as §1

S. aureus ATCC 29213 = test: MIC (broth microdilution or agar dilution, CLSI); settings: Staphylococcus aureus, ATCC29213
Summary of the method: as §1

S. aureus ATCC 700699 = test: MIC (broth microdilution or agar dilution, CLSI); settings: Staphylococcus aureus, ATCC 700699 / VISA
Summary of the method: as §1

[3] = system: S. pyogenes MMX 946; cErmB; test: MIC (broth microdilution or agar dilution, CLSI); settings: Streptococcus pyogenes
Summary of the method: as §1

[4] = system: S. pneumoniae MMX 3028 cErmB; test: MIC (broth microdilution or agar dilution, CLSI); settings: Streptococcus pneumoniae, MMX3028CERMB
Summary of the method: as §1

E. coli LptD = test: MIC (broth microdilution or agar dilution, CLSI); settings: Escherichia coli, E. coli HAV#040; LptD; read-out: MIC
Summary of the method: as §1

S. pyogenes ATCC 19615 = test: MIC (broth microdilution or agar dilution, CLSI); settings: Streptococcus pyogenes, ATCC19615
Summary of the method: as §1

S. pneumoniae ATCC 6303 = test: MIC (broth microdilution or agar dilution, CLSI); settings: Streptococcus pneumoniae, ATCC6303
Summary of the method: as §1

[5] = system: broad panel of different clinical isolates; test: microbe, parasite or virus in culture
Summary of the method: as §1

E. coli ΔTolC = test: microbe, parasite or virus in culture; settings: Escherichia coli
Summary of the method: as §1

S. aureus BAA 977 iErmA = test: microbe, parasite or virus in culture; settings: Staphylococcus aureus, BAA-977 / MRSA
Summary of the method: as §1

S. aureus MP-549 msrA = test: microbe, parasite or virus in culture; settings: Staphylococcus aureus, MP549MSRA
Summary of the method: as §1

Measured: MIC

CN[C@H](CC(C)C)C(=O)N[C@H]1C(=O)N[C@@H](CC(N)=O)C(=O)N[C@H]2C(=O)N[C@H]3C(=O)N[C@H](C(=O)N[C@H](C(=O)O)c4cc(O)cc(O)c4-c4cc3ccc4O)[C@H](O)c3ccc(c(Cl)c3)Oc3cc2cc(c3O[C@@H]2O[C@H](CO)[C@@H](O)[C@H](O)[C@H]2O[C@H]2C[C@](C)(N)[C@H](O)[C@H](C)O2)Oc2ccc(cc2Cl)[C@H]1O [Vancomycin]
8 µg/mL: S. aureus ATCC 700699 | [5]; Enterococcus faecalis, VRE, E. faecalis HAV#251, Clinical VRE | [5]; Staphylococcus aureus, VISA, S. aureus HAV#203, Clinical (VISA)
0.25 µg/mL: [4]
> 256 µg/mL: [5]; Enterococcus faecalis, S. faecalis 5060, Line R & Vanco R | [5]; Enterococcus faecium, VRE, E. faecium HAV#319, Line R & Vanco R
0.5 µg/mL: S. pneumoniae ATCC 49619 | [2] | [3] | S. pyogenes ATCC 19615 | S. pneumoniae ATCC 6303 | [5]; Staphylococcus aureus, S. aureus HAV#211, Clinical | [5]; Staphylococcus aureus, S. aureus HAV#212, Clinical | [5]; Staphylococcus aureus, S. aureus HAV#213, Clinical | [5]; Staphylococcus aureus, S. aureus HAV#214, Clinical | [5]; Streptococcus pneumoniae, ATCC700673, S. pneumoniae HAV#352, ATCC 700673, MDR | [5]; Streptococcus pneumoniae, ATCCBAA334, S. pneumoniae HAV#353, ATCC-BAA-334
> 64 µg/mL: K. pneumoniae ATCC 10031 | [5]; Enterococcus faecium, VRE, E. faecium HAV#318, VanA | [5]; Haemophilus influenzae, ATCC9007, H. influenzae HAV#376, ATCC-9007 | [5]; Staphylococcus aureus, S. aureus HAV#216, Clinical, cfr | [5]; Staphylococcus aureus, S. aureus HAV#217, cfr | [5]; Staphylococcus epidermidis, S. epidermidis HAV# 275 Clinical, cfr | [5]; Staphylococcus epidermidis, S. epidermidis HAV# 276, cfr
1 µg/mL: [1] | S. aureus ATCC 29213 | E. coli LptD | [5]; Staphylococcus aureus, MRSA, S. aureus HAV#218, Line R | [5]; Staphylococcus aureus, MRSA, S. aureus HAV#220, Line R | [5]; Staphylococcus aureus, MSSA, S. aureus HAV#219, Line R | [5]; Staphylococcus aureus, S. aureus HAV#054, mecA, norA, spcl, aad1, fosB, ermA, aac6′-aph2″, blaZ | [5]; Staphylococcus aureus, S. aureus HAV#215, Clinical | [5]; Staphylococcus haemolyticus, S. haemolyticus 5052, Line R & Methicillin R | [5]; Streptococcus pneumoniae, ATCCBAA255, S. pneumoniae HAV#354, ATCC-BAA-255 | [5]; Streptococcus pneumoniae, S. pneumoniae HAV#358, Clinical | S. aureus BAA 977 iErmA | S. aureus MP-549 msrA
2 µg/mL: S. aureus hVISA | [5]; Enterococcus faecalis, S. faecalis 5074, Line R | [5]; Enterococcus faecium, E. faecium HAV#317, Clinical | [5]; Staphylococcus aureus, MRSA, S. aureus HAV#0107, MRSA Col(Colindale, England) | [5]; Staphylococcus aureus, S. aureus HAV#051, mecA, norA, spcl, ermA, aad1, aac6′-aph2″ | [5]; Staphylococcus aureus, S. aureus HAV#052, mecA, norA, fosB, blaZ | [5]; Staphylococcus aureus, S. aureus HAV#053 mecA, norA, fosB | [5]; Staphylococcus epidermidis, S. epidermidis HAV#277, Line R | [5]; Staphylococcus epidermidis, S. epidermidis HAV#278 Line R | [5]; Staphylococcus epidermidis, S. epidermidis HAV#279, Line R | [5]; Streptococcus pneumoniae, S. pneumoniae HAV#356, Clinical
4 µg/mL: E. faecalis ATCC 29212 | [5]; Enterococcus faecalis, E. faecalis HAV#602, Clincal | [5]; Enterococcus faecium, E. faecium HAV#327, Clinical
16 µg/mL: [5]; Enterococcus faecalis, E. faecalis HAV#608, Clinical
128 µg/mL: [5]; Acinetobacter baumannii, A. baumannii HAV#651, Clinical | [5]; Acinetobacter baumannii, A. baumannii HAV#652 Clinical | [5]; Acinetobacter baumannii, A. baumannii HAV#653, Clinical | [5]; Acinetobacter baumannii, A. baumannii HAV#654, Clinical | [5]; Acinetobacter baumannii, A. baumannii HAV#655, Clinical | [5]; Acinetobacter baumannii, A. baumannii HAV#661, Clinical | [5]; Acinetobacter baumannii, A. baumannii HAV#663, Clinical | [5]; Escherichia coli, E. coli HAV#503, Clinical | [5]; Escherichia coli, E. coli HAV#514, Clinical | [5]; Escherichia coli, E. coli HAV#516, ESBL-producing
> 128 µg/mL: [5]; Acinetobacter baumannii, A. baumannii HAV#656, Clinical | [5]; Acinetobacter baumannii, A. baumannii HAV#657, Clinical | [5]; Acinetobacter baumannii, A. baumannii HAV#658, Clinical | [5]; Acinetobacter baumannii, A. baumannii HAV#659, Clinical | [5]; Acinetobacter baumannii, A. baumannii HAV#660, Clinical | [5]; Acinetobacter baumannii, A. baumannii HAV#662, Clinical | [5]; Acinetobacter baumannii, A. baumannii HAV#664, Carbapenem R | [5]; Enterococcus faecalis, E. faecalis HAV#607, Clinical | [5]; Enterococcus faecalis, VRE, E. faecalis HAV#606, Clinical | [5]; Enterococcus faecium, E. faecium HAV#324, Clinical | [5]; Enterococcus faecium, E. faecium HAV#328, Clinical | [5]; Enterococcus faecium, E. faecium HAV#329, Clinical | [5]; Enterococcus faecium, VRE, E. faecium HAV#320, Clinical | [5]; Escherichia coli, E. coli HAV#511, Clinical | [5]; Escherichia coli, E. coli HAV#512, Clinical | [5]; Escherichia coli, E. coli HAV#513, Clinical | [5]; Klebsiella pneumoniae, K. pneumoniae HAV#404, Clinical | [5]; Klebsiella pneumoniae, K. pneumoniae HAV#405, Clinical | [5]; Klebsiella pneumoniae, K. pneumoniae HAV#406, Clinical | [5]; Klebsiella pneumoniae, K. pneumoniae HAV#407, Clinical | [5]; Klebsiella pneumoniae, K. pneumoniae HAV#408, Clinical | [5]; Klebsiella pneumoniae, K. pneumoniae HAV#409, ESBL-producing | E. coli ΔTolC
32 µg/mL: [5]; Enterococcus faecalis, E. faecalis HAV#609, Clinical | [5]; Enterococcus faecalis, E. faecalis HAV#610, Clinical
